From PubChem BioAssay (NCI)
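Growth conditions: 96-well plates. Treatment: test compound, 48 hours, 5 concentrations. Analysis: linear interpolation between bracketing concentrations; unreached endpoints set to highest concentration. Here, GI50 denotes the concentration required for 50% inhibition of growth. TGI: total growth inhibition.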

Key:
Test in all cases: NCI-60 cell line screen, 48 h
[1] = system: 786-0 renal
[2] = system: A498 renal
[3] = system: A549 NSCLC
[4] = system: ACHN renal
[5] = system: BT-549 breast
[6] = system: CAKI-1 renal
[7] = system: CCRF-CEM leukemia
[8] = system: COLO 205 colon
[9] = system: DU-145 prostate
[10] = system: EKVX NSCLC
[11] = system: HCC-2998 colon
[12] = system: HCT-116 colon
[13] = system: HCT-15 colon
[14] = system: HL-60(TB) leukemia
[15] = system: HOP-62 NSCLC
[16] = system: HOP-92 NSCLC
[17] = system: HS 578T breast
[18] = system: HT29 colon
[19] = system: IGROV1 ovarian
[20] = system: K-562 leukemia
[21] = system: KM12 colon
[22] = system: LOX IMVI melanoma
[23] = system: M14 melanoma
[24] = system: MALME-3M melanoma
[25] = system: MCF7 breast
[26] = system: MDA-MB-231 breast
[27] = system: MDA-MB-435
[28] = system: MOLT-4 leukemia
[29] = system: NCI-H226 lung
[30] = system: NCI-H23 lung
[31] = system: NCI-H460 lung
[32] = system: NCI-H522 lung
[33] = system: NCI/ADR-RES ovarian
[34] = system: OVCAR-3 ovarian
[35] = system: OVCAR-4 ovarian
[36] = system: OVCAR-5 ovarian
[37] = system: OVCAR-8 ovarian
[38] = system: PC-3 prostate
[39] = system: RPMI-8226 leukemia
[40] = system: RXF 393 renal
[41] = system: SF-268 CNS
[42] = system: SF-295 CNS
[43] = system: SF-539 CNS
[44] = system: SK-MEL-2 melanoma
[45] = system: SK-MEL-28 melanoma
[46] = system: SK-MEL-5 melanoma
[47] = system: SK-OV-3 ovarian
[48] = system: SN12C renal
[49] = system: SNB-19 CNS
[50] = system: SNB-75 CNS
[51] = system: SR leukemia
[52] = system: SW-620 colon
[53] = system: T-47D breast
[54] = system: TK-10 renal
[55] = system: U251 CNS
[56] = system: UACC-257 melanoma
[57] = system: UACC-62 melanoma
[58] = system: UO-31 renal

## C=C(C)CCC(C)N1CCC(N2CCC(C(=O)NCCc3ccccc3)CC2)CC1 (configuration not stated)
[1]
  GI50: > 100 µM
  TGI: > 100 µM
[2]
  GI50: 4.55 µM
  TGI: 44.4 µM
[3]
  GI50: 32.2 µM
  TGI: > 100 µM
[4]
  GI50: 17.2 µM
  TGI: 53.8 µM
[5]
  GI50: 12.1 µM
  TGI: > 100 µM
[6]
  GI50: 17.3 µM
  TGI: 75.4 µM
[7]
  GI50: 19.9 µM
  TGI: > 100 µM
[8]
  GI50: 13.4 µM
  TGI: 33.8 µM
[9]
  GI50: > 100 µM
  TGI: > 100 µM
[10]
  GI50: 9.27 µM
  TGI: > 100 µM
[11]
  GI50: 37.9 µM
  TGI: > 100 µM
[12]
  GI50: 16.8 µM
  TGI: > 100 µM
[13]
  GI50: 16.7 µM
  TGI: 57.6 µM
[14]
  GI50: 25.7 µM
  TGI: > 100 µM
[15]
  GI50: 68.9 µM
  TGI: > 100 µM
[16]
  GI50: 13.4 µM
  TGI: 62 µM
[17]
  GI50: 20.4 µM
  TGI: 61.8 µM
[18]
  GI50: 22.1 µM
  TGI: > 100 µM
[19]
  GI50: > 100 µM
  TGI: > 100 µM
[20]
  GI50: 9.9 µM
  TGI: 34.2 µM
[21]
  GI50: 54.6 µM
  TGI: > 100 µM
[22]
  GI50: 15.8 µM
  TGI: 35.5 µM
[23]
  GI50: 15.4 µM
  TGI: 31.1 µM
[24]
  GI50: 11.8 µM
  TGI: 26.9 µM
[25]
  GI50: 19.6 µM
  TGI: > 100 µM
[26]
  GI50: 29.9 µM
  TGI: > 100 µM
[27]
  GI50: 14 µM
  TGI: 28.5 µM
[28]
  GI50: 45.9 µM
  TGI: > 100 µM
[29]
  GI50: 96.6 µM
  TGI: > 100 µM
[30]
  GI50: 31.3 µM
  TGI: > 100 µM
[31]
  GI50: 37.8 µM
  TGI: > 100 µM
[32]
  GI50: 14 µM
  TGI: 54.4 µM
[33]
  GI50: 37.4 µM
  TGI: > 100 µM
[34]
  GI50: 53.7 µM
  TGI: > 100 µM
[35]
  GI50: 5.97 µM
  TGI: 73 µM
[36]
  GI50: 78.9 µM
  TGI: > 100 µM
[37]
  GI50: 27.8 µM
  TGI: > 100 µM
[38]
  GI50: 79.2 µM
  TGI: > 100 µM
[39]
  GI50: 10.1 µM
  TGI: > 100 µM
[40]
  GI50: 14.8 µM
  TGI: 43 µM
[41]
  GI50: 98 µM
  TGI: > 100 µM
[42]
  GI50: 11.9 µM
  TGI: 26.1 µM
[43]
  GI50: 10.5 µM
  TGI: 23.8 µM
[44]
  GI50: 21.3 µM
  TGI: 54.3 µM
[45]
  GI50: 13.2 µM
  TGI: 27.5 µM
[46]
  GI50: 4.2 µM
  TGI: 16.8 µM
[47]
  GI50: 21.2 µM
  TGI: 77.3 µM
[48]
  GI50: 55.5 µM
  TGI: > 100 µM
[49]
  GI50: 58.9 µM
  TGI: > 100 µM
[50]
  GI50: 14.1 µM
  TGI: 44.6 µM
[51]
  GI50: 12.3 µM
  TGI: 82.1 µM
[52]
  GI50: 24.7 µM
  TGI: > 100 µM
[53]
  GI50: 13.4 µM
  TGI: > 100 µM
[54]
  GI50: 18.5 µM
  TGI: 69.3 µM
[55]
  GI50: 14.4 µM
  TGI: 33 µM
[56]
  GI50: 13.5 µM
  TGI: 30.5 µM
[57]
  GI50: 13.7 µM
  TGI: 28.8 µM
[58]
  GI50: 11 µM
  TGI: 25.3 µM

## O=C(NN1C(=O)CSC1c1ccc(Cl)cc1)c1[nH]c2ccc(F)cc2c1-c1ccccc1 (configuration not stated)
[1]
  GI50: 1.89 µM
  TGI: 3.6 µM
[2]
  GI50: 2.98 µM
  TGI: 9.79 µM
[3]
  GI50: 3.58 µM
  TGI: 15.6 µM
[4]
  GI50: 3.28 µM
  TGI: 12.2 µM
[5]
  GI50: 2.09 µM
  TGI: 5.37 µM
[6]
  GI50: 5.07 µM
  TGI: 17.2 µM
[7]
  GI50: 2.17 µM
  TGI: 5.85 µM
[8]
  GI50: 2.2 µM
  TGI: 4.81 µM
[9]
  GI50: 2.2 µM
  TGI: 4.63 µM
[10]
  GI50: 6.23 µM
  TGI: 24.8 µM
[11]
  GI50: 2.31 µM
  TGI: 5.63 µM
[12]
  GI50: 1.87 µM
  TGI: 4.11 µM
[13]
  GI50: 3.9 µM
  TGI: 14.3 µM
[14]
  GI50: 2.75 µM
  TGI: 7.71 µM
[15]
  GI50: 2.34 µM
  TGI: 5.55 µM
[16]
  GI50: 2.42 µM
  TGI: 6.6 µM
[17]
  GI50: 2.84 µM
  TGI: 9.37 µM
[18]
  GI50: 3.09 µM
  TGI: 10.5 µM
[19]
  GI50: 3.89 µM
  TGI: 11.5 µM
[20]
  GI50: 2.43 µM
  TGI: 9.51 µM
[21]
  GI50: 1.61 µM
  TGI: 3.38 µM
[22]
  GI50: 2.65 µM
  TGI: 7.18 µM
[23]
  GI50: 2.5 µM
  TGI: 6.45 µM
[24]
  GI50: 6.03 µM
  TGI: > 42.8 µM
[25]
  GI50: 2.85 µM
  TGI: 8.58 µM
[26]
  GI50: 2.81 µM
  TGI: 7.86 µM
[27]
  GI50: 2.94 µM
  TGI: 9.13 µM
[28]
  GI50: 2.4 µM
  TGI: 8.17 µM
[29]
  GI50: 3.51 µM
  TGI: 9.43 µM
[30]
  GI50: 2.26 µM
  TGI: 6.59 µM
[31]
  GI50: 2.81 µM
  TGI: 7.84 µM
[32]
  GI50: 4.34 µM
  TGI: 14.8 µM
[33]
  GI50: 3 µM
  TGI: 10.6 µM
[34]
  GI50: 1.85 µM
  TGI: 3.53 µM
[35]
  GI50: 6.3 µM
  TGI: 24 µM
[36]
  GI50: 2.64 µM
  TGI: 8.34 µM
[37]
  GI50: 4.34 µM
  TGI: 20.6 µM
[38]
  GI50: 2.72 µM
  TGI: 8.89 µM
[39]
  GI50: 2.13 µM
  TGI: 6.24 µM
[40]
  GI50: 3.42 µM
  TGI: 15.4 µM
[41]
  GI50: 2.51 µM
  TGI: 7.19 µM
[42]
  GI50: 2.86 µM
  TGI: 11.4 µM
[43]
  GI50: 6.08 µM
  TGI: 13.5 µM
[44]
  GI50: 9.61 µM
  TGI: 26.3 µM
[45]
  GI50: 3.23 µM
  TGI: 10.1 µM
[46]
  GI50: 5.92 µM
  TGI: 16 µM
[47]
  GI50: 7.25 µM
  TGI: 20 µM
[48]
  GI50: 2.87 µM
  TGI: 7.84 µM
[49]
  GI50: 3.79 µM
  TGI: 15.5 µM
[50]
  GI50: 5.04 µM
  TGI: 21 µM
[51]
  GI50: 2.27 µM
  TGI: 6.27 µM
[52]
  GI50: 2.98 µM
  TGI: 8.92 µM
[53]
  GI50: 3.73 µM
  TGI: 14.2 µM
[54]
  GI50: 2.31 µM
  TGI: 5.52 µM
[55]
  GI50: 3.14 µM
  TGI: 8.38 µM
[56]
  GI50: 10.5 µM
  TGI: 25.6 µM
[57]
  GI50: 5.38 µM
  TGI: 17.3 µM
[58]
  GI50: 4.07 µM
  TGI: 13.7 µM
